Measurements taken from PubChem BioAssay (NCI).
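How tested: cells in 96-well plates exposed to compound for 48 hours at five concentrations. TGI marks complete inhibition of growth.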

What was measured:
Assay in all cases: growth of human tumour cells (NCI), 48 h
[1] = tested on: SN12C renal
[2] = tested on: MDA-MB-435
[3] = tested on: M14 melanoma
[4] = tested on: CAKI-1 renal
[5] = tested on: HS 578T breast
[6] = tested on: LOX IMVI melanoma
[7] = tested on: OVCAR-5 ovarian
[8] = tested on: PC-3 prostate
[9] = tested on: UACC-257 melanoma
[10] = tested on: MDA-MB-231 breast
[11] = tested on: MOLT-4 leukemia
[12] = tested on: MALME-3M melanoma
[13] = tested on: SF-539 CNS
[14] = tested on: HCT-15 colon
[15] = tested on: HT29 colon
[16] = tested on: HCT-116 colon
[17] = tested on: T-47D breast
[18] = tested on: SF-295 CNS
[19] = tested on: NCI-H226 lung
[20] = tested on: SW-620 colon
[21] = tested on: U251 CNS
[22] = tested on: K-562 leukemia
[23] = tested on: ACHN renal
[24] = tested on: EKVX NSCLC
[25] = tested on: SK-MEL-2 melanoma
[26] = tested on: RXF 393 renal
[27] = tested on: SF-268 CNS
[28] = tested on: HOP-92 NSCLC
[29] = tested on: NCI-H522 lung
[30] = tested on: SK-OV-3 ovarian
[31] = tested on: UACC-62 melanoma
[32] = tested on: RPMI-8226 leukemia
[33] = tested on: NCI/ADR-RES ovarian
[34] = tested on: MDA-N
[35] = tested on: DU-145 prostate
[36] = tested on: TK-10 renal
[37] = tested on: UO-31 renal
[38] = tested on: A549 NSCLC
[39] = tested on: OVCAR-4 ovarian
[40] = tested on: SK-MEL-5 melanoma
[41] = tested on: 786-0 renal
[42] = tested on: SR leukemia
[43] = tested on: MCF7 breast
[44] = tested on: HOP-62 NSCLC
[45] = tested on: BT-549 breast
[46] = tested on: IGROV1 ovarian
[47] = tested on: SNB-75 CNS
[48] = tested on: SK-MEL-28 melanoma
[49] = tested on: NCI-H23 lung
[50] = tested on: NCI-H460 lung
[51] = tested on: COLO 205 colon
[52] = tested on: SNB-19 CNS
[53] = tested on: A498 renal
[54] = tested on: OVCAR-3 ovarian
[55] = tested on: OVCAR-8 ovarian
[56] = tested on: KM12 colon
[57] = tested on: HL-60(TB) leukemia
[58] = tested on: HCC-2998 colon
[59] = tested on: CCRF-CEM leukemia

Measured: TGI

C(=NCCN1CCOCC1)=NC1CCCCC1
not listed: [57] | [58] | [59]
> 100 µM: all other assays above

N#C[C@H](c1ccccn1)c1nc2ccccc2nc1Cl
not listed: [6] | [22] | [27] | [35] | [36]
> 100 µM: all other assays above
